Like-named read-outs stand apart in the source and are kept apart here.
Assays:
Type in all cases: in vivo
[1] = system: corn (Zea mays); test: Test A postemergence; conditions: Zea mays, post-emergence, 240 h
Summary of the method: (§1)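 Seeds sprayed preemergence with a directed soil spray, or plants at 2 to 10 cm height and one- to two-leaf stage sprayed postemergence, with test chemicals in a non-phytotoxic solvent mixture containing surfactant, in loam soil–sand blend. Injury rated visually against untreated controls after about 10 d in greenhouse, 0 (no effect) to 100 (complete control).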

[2] = system: pigweed (Amaranthus retroflexus); test: Test A postemergence; conditions: Amaranthus retroflexus, post-emergence, 240 h; for pest or weed control at 125 g/ha: 125 g ai/ha
Summary of the method: as §1

[3] = system: blackgrass (Alopecurus myosuroides); test: Test A postemergence; conditions: Alopecurus myosuroides, post-emergence, 240 h; for pest or weed control at 125 g/ha: 125 g ai/ha
Summary of the method: as §1

[4] = system: barnyardgrass (Echinochloa crus-galli); test: Test A postemergence; conditions: Echinochloa crus-galli, post-emergence, 240 h; for pest or weed control at 125 g/ha: 125 g ai/ha
Summary of the method: as §1

[5] = system: giant foxtail (Setaria faberii); test: Test A postemergence; conditions: Setaria faberi, post-emergence, 240 h; for pest or weed control at 125 g/ha: 125 g ai/ha
Summary of the method: as §1

[6] = system: wheat (Triticum aestivum); test: Test A postemergence; conditions: Triticum aestivum, post-emergence, 240 h; for plant injury at 125 g/ha: 125 g ai/ha
Summary of the method: as §1

[7] = system: ragweed (common ragweed, Ambrosia elatior); test: Test A postemergence; conditions: Ambrosia artemisiifolia, post-emergence, 240 h; for pest or weed control at 125 g/ha: 125 g ai/ha
Summary of the method: as §1

[8] = system: Kochia (Kochia scoparia); test: Test A postemergence; conditions: Bassia scoparia, post-emergence, 240 h; for pest or weed control at 125 g/ha: 125 g ai/ha
Summary of the method: as §1

[9] = system: Galium (catchweed bedstraw, Galium aparine); test: Test A postemergence; conditions: Galium, post-emergence, 240 h; for pest or weed control at 125 g/ha: 125 g ai/ha
Summary of the method: as §1

[10] = system: pigweed (Amaranthus retroflexus); test: Test A preemergence; conditions: Amaranthus retroflexus, pre-emergence, 240 h, read-out: Plant response rating, Pigweed; for pest or weed control at 125 g/ha: 125 g ai/ha; for pest or weed control at 500 g/ha: 500 g ai/ha
[11] = system: barnyardgrass (Echinochloa crus-galli); test: Test A preemergence; conditions: Echinochloa crus-galli, pre-emergence, 240 h, read-out: Plant response rating, Barnyardgrass; for pest or weed control at 125 g/ha: 125 g ai/ha; for pest or weed control at 500 g/ha: 500 g ai/ha
Summary of the method: as §1

[12] = system: giant foxtail (Setaria faberii); test: Test A preemergence; conditions: Setaria faberi, pre-emergence, 240 h, read-out: Plant response rating, Foxtail, Giant; for pest or weed control at 125 g/ha: 125 g ai/ha; for pest or weed control at 500 g/ha: 500 g ai/ha
Summary of the method: as §1

[13] = system: ryegrass, Italian (Italian ryegrass, Lolium multiflorum); test: Test A preemergence; conditions: Lolium multiflorum, pre-emergence, 240 h, read-out: Plant response rating, Ryegrass, Italian; for pest or weed control at 125 g/ha: 125 g ai/ha
Summary of the method: as §1

[14] = system: ragweed (common ragweed, Ambrosia elatior); test: Test A preemergence; conditions: Ambrosia artemisiifolia, pre-emergence, 240 h, read-out: Plant response rating, Ragweed; for pest or weed control at 125 g/ha: 125 g ai/ha; for pest or weed control at 500 g/ha: 500 g ai/ha
Summary of the method: as §1

[15] = system: Kochia (Kochia scoparia); test: Test A preemergence; conditions: Bassia scoparia, pre-emergence, 240 h, read-out: Plant response rating, Kochia; for pest or weed control at 125 g/ha: 125 g ai/ha; for pest or weed control at 500 g/ha: 500 g ai/ha
Summary of the method: as §1

[16] = preemergence, visual rating after approx. 10 d, 0 to 100 scale where 0 is no effect and 100 is complete control
[17] = preemergence, 0 to 100 scale, 0 = no effect, 100 = complete control
[18] = preemergence, 0 to 100 scale (0 no effect, 100 complete control)
[19] = Preemergence, 0 to 100 scale (0 no effect, 100 complete control)

Cc1ccc(NC(=O)[C@H]2C(=O)N(C)C[C@@H]2c2cc(F)cc(F)c2)c(F)c1F [Compound 771]
70%: pest or weed control at 125 g/ha ([3]; postemergence, visual injury after approximately 10 d, 0 to 100 scale (0 no effect, 100 complete control), read-out: Plant response rating, Blackgrass)
90%: pest or weed control at 125 g/ha ([4]; postemergence, visual injury after approximately 10 d, 0 to 100 scale (0 no effect, 100 complete control), read-out: Plant response rating, Barnyardgrass) | pest or weed control at 125 g/ha ([5]; postemergence, visual injury after approximately 10 d, 0 to 100 scale (0 no effect, 100 complete control), read-out: Plant response rating, Foxtail, Giant) | pest or weed control at 125 g/ha [11, 16] | pest or weed control at 500 g/ha [11, 17] | pest or weed control at 125 g/ha [12, 16] | pest or weed control at 500 g/ha [12, 17]
20%: pest or weed control at 125 g/ha ([7]; postemergence, visual injury after approximately 10 d, 0 to 100 scale (0 no effect, 100 complete control), read-out: Plant response rating, Ragweed)
0%: pest or weed control at 125 g/ha ([2]; postemergence, visual injury after approximately 10 d, 0 to 100 scale (0 no effect, 100 complete control), read-out: Plant response rating, Pigweed) | pest or weed control at 125 g/ha [10, 16] | pest or weed control at 500 g/ha [10, 17] | pest or weed control at 125 g/ha [14, 16]
40%: Corn plant response rating (crop injury, 0 = no effect, 100 = complete kill) at 125 g/ha ([1]; 125 g ai/ha, postemergence, visual injury after approximately 10 d, 0 to 100 scale (0 no effect, 100 complete control)) | pest or weed control at 125 g/ha [13, 16]
50%: pest or weed control at 125 g/ha ([8]; postemergence, visual injury after approximately 10 d, 0 to 100 scale (0 no effect, 100 complete control), read-out: Plant response rating, Kochia) | pest or weed control at 125 g/ha ([9]; postemergence, visual injury after approximately 10 d, 0 to 100 scale (0 no effect, 100 complete control), read-out: Plant response rating, Galium) | pest or weed control at 500 g/ha [14, 17] | pest or weed control at 125 g/ha [15, 16]
30%: plant injury at 125 g/ha ([6]; postemergence, visual injury after approximately 10 d, 0 to 100 scale (0 no effect, 100 complete control), read-out: Plant response rating, Wheat)
80%: pest or weed control at 500 g/ha [15, 17]

CN1CC[C@H](c2cccc(C(F)(F)F)c2)[C@@H](C(=O)Nc2ccccc2F)C1=O [Compound 1331]
90%: pest or weed control at 125 g/ha ([4]; Postemergence, visual rating about 10 d after treatment, read-out: Barnyardgrass plant response rating (0 to 100 scale, 0 no effect, 100 complete control)) | pest or weed control at 500 g/ha ([4]; Postemergence, 500 g ai/ha, visual injury, 0 to 100 scale (0 no effect, 100 complete control), approx. 10 d, read-out: Plant response rating, Barnyardgrass) | pest or weed control at 125 g/ha ([5]; Postemergence, visual rating about 10 d after treatment, read-out: Foxtail, Giant plant response rating (0 to 100 scale)) | pest or weed control at 500 g/ha ([5]; Postemergence, 500 g ai/ha, visual injury, 0 to 100 scale (0 no effect, 100 complete control), approx. 10 d, read-out: Plant response rating, Foxtail, Giant) | pest or weed control at 500 g/ha [11, 18] | pest or weed control at 125 g/ha [11, 19] | pest or weed control at 125 g/ha [12, 19]
20%: plant injury at 125 g/ha ([1]; 125 g ai/ha, Postemergence, visual rating about 10 d after treatment, read-out: Corn plant response rating (0 to 100 scale)) | pest or weed control at 125 g/ha ([3]; Postemergence, visual rating about 10 d after treatment, read-out: Blackgrass plant response rating (0 to 100 scale)) | pest or weed control at 125 g/ha [13, 19]
80%: pest or weed control at 500 g/ha ([13]; 500 g ai/ha, preemergence, 0 to 100 scale (0 no effect, 100 complete control))
100%: pest or weed control at 500 g/ha [12, 18]
50%: pest or weed control at 500 g/ha ([3]; Postemergence, 500 g ai/ha, visual injury, 0 to 100 scale (0 no effect, 100 complete control), approx. 10 d, read-out: Plant response rating, Blackgrass) | plant injury at 500 g/ha ([6]; Postemergence, 500 g ai/ha, visual injury, 0 to 100 scale (0 no effect, 100 complete control), approx. 10 d, read-out: Plant response rating, Wheat)
0%: pest or weed control at 125 g/ha ([2]; Postemergence, visual rating about 10 d after treatment, read-out: Pigweed plant response rating (0 to 100 scale)) | pest or weed control at 500 g/ha ([2]; Postemergence, 500 g ai/ha, visual injury, 0 to 100 scale (0 no effect, 100 complete control), approx. 10 d, read-out: Plant response rating, Pigweed) | plant injury at 125 g/ha ([6]; Postemergence, visual rating about 10 d after treatment, read-out: Wheat plant response rating (0 to 100 scale)) | pest or weed control at 125 g/ha ([7]; Postemergence, visual rating about 10 d after treatment, read-out: Ragweed plant response rating (0 to 100 scale)) | pest or weed control at 500 g/ha ([7]; Postemergence, 500 g ai/ha, visual injury, 0 to 100 scale (0 no effect, 100 complete control), approx. 10 d, read-out: Plant response rating, Ragweed) | pest or weed control at 125 g/ha ([8]; Postemergence, visual rating about 10 d after treatment, read-out: Kochia plant response rating (0 to 100 scale)) | pest or weed control at 500 g/ha ([8]; Postemergence, 500 g ai/ha, visual injury, 0 to 100 scale (0 no effect, 100 complete control), approx. 10 d, read-out: Plant response rating, Kochia) | pest or weed control at 125 g/ha ([9]; Postemergence, visual rating about 10 d after treatment, read-out: Galium plant response rating (0 to 100 scale)) | pest or weed control at 500 g/ha ([9]; Postemergence, 500 g ai/ha, visual injury, 0 to 100 scale (0 no effect, 100 complete control), approx. 10 d, read-out: Plant response rating, Galium) | pest or weed control at 500 g/ha [10, 18] | pest or weed control at 125 g/ha [10, 19] | pest or weed control at 500 g/ha [14, 18] | pest or weed control at 125 g/ha [14, 19] | pest or weed control at 500 g/ha [15, 18] | pest or weed control at 125 g/ha [15, 19]
70%: Corn plant response rating (crop injury, 0 = no effect, 100 = complete kill) at 500 g/ha ([1]; Postemergence, 500 g ai/ha, visual injury, 0 to 100 scale (0 no effect, 100 complete control), approx. 10 d)
